{"source": "ChEMBL document CHEMBL4507288", "about": "(2021)", "key": {"[1]": {"molecular_target": "GABA-A receptor; anion channel (Rattus norvegicus) (UniProt O09028+P15431+P18506+P18508+P19969+P20236+P23574+P23576+P28471+P28473+P30191+P62813+P63079+P63138+Q91ZM7+Q9ES14)", "conditions": "Compound concentration 10.0 uM"}, "[2]": {"tested_on": "Tyrosine-protein kinase ABL1 (Homo sapiens), P00519 [F317L]", "conditions": "Compound concentration 1000.0 nM"}, "[3]": {"tested_on": "Tyrosine-protein kinase ABL1 (Homo sapiens), P00519 [M351T]", "conditions": "Compound concentration 1000.0 nM"}, "[4]": {"molecular_target": "Mitogen-activated protein kinase kinase kinase 6 (Homo sapiens) (UniProt O95382)", "sequence (O95382 whole entry)": "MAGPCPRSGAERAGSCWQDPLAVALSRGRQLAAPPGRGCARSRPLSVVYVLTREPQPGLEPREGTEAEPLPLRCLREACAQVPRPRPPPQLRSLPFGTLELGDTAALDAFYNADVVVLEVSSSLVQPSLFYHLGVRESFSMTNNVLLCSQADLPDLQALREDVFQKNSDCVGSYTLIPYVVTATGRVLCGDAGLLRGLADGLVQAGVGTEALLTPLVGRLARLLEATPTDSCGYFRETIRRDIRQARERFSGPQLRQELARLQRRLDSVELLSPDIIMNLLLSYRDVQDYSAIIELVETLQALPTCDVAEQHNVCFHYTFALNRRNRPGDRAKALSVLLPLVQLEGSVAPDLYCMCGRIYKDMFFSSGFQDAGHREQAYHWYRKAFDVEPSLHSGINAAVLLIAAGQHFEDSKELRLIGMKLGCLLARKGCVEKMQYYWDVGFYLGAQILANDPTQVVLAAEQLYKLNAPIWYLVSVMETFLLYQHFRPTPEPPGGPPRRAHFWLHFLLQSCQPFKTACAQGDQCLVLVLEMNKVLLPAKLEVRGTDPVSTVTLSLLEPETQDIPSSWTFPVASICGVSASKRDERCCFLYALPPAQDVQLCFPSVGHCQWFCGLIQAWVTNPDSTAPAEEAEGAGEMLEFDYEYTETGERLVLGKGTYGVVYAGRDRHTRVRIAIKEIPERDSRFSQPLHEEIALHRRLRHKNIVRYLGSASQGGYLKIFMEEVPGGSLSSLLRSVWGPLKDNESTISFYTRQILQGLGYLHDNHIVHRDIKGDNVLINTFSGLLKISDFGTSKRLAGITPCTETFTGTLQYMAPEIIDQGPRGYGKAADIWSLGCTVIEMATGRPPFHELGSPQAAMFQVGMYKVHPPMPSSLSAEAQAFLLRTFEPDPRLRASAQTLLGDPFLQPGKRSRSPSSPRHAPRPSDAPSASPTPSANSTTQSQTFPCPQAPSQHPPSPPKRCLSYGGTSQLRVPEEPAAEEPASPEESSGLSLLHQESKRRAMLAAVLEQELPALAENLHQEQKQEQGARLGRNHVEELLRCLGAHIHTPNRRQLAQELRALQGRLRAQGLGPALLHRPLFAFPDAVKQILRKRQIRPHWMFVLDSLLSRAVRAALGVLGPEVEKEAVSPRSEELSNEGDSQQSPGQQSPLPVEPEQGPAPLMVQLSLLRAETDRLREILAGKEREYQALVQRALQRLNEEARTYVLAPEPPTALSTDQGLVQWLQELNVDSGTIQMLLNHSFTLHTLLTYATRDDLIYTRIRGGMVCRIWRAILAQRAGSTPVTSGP", "conditions": "Compound concentration 1000.0 nM"}, "[5]": {"molecular_target": "Bone morphogenetic protein receptor type-1A (Homo sapiens) (UniProt P36894)", "conditions": "Compound concentration 1000.0 nM"}, "[6]": {"molecular_target": "Calcium/calmodulin-dependent protein kinase type II subunit gamma (Homo sapiens) (UniProt Q13555)", "sequence (Q13555 whole entry)": "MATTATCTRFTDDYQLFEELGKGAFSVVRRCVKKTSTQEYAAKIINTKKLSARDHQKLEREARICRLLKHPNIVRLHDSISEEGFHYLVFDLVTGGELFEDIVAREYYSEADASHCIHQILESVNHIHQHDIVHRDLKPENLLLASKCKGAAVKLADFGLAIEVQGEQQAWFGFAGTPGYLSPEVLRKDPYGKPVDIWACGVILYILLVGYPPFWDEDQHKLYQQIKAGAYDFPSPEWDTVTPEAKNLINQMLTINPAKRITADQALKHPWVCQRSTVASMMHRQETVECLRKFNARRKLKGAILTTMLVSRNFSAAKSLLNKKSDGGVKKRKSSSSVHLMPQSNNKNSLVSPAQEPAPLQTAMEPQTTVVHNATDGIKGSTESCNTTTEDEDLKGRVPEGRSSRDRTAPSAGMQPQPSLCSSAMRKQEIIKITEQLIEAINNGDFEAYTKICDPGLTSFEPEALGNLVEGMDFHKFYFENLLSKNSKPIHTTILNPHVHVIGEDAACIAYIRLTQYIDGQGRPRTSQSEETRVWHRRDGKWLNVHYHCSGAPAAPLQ", "conditions": "Compound concentration 1000.0 nM"}, "[7]": {"molecular_target": "Cyclin-dependent kinase 3 (Homo sapiens) (UniProt Q00526)", "conditions": "Compound concentration 1000.0 nM"}, "[8]": {"molecular_target": "Cyclin-dependent kinase-like 3 (Homo sapiens) (UniProt Q8IVW4)", "conditions": "Compound concentration 1000.0 nM"}, "[9]": {"molecular_target": "Serine/threonine-protein kinase Chk1 (Homo sapiens) (UniProt O14757)", "conditions": "Compound concentration 1000.0 nM"}, "[10]": {"tested_on": "Epidermal growth factor receptor (Homo sapiens), P00533 [UNDEFINED MUTATION]", "conditions": "Compound concentration 1000.0 nM"}, "[11]": {"molecular_target": "Ephrin type-A receptor 3 (Homo sapiens) (UniProt P29320)", "conditions": "Compound concentration 1000.0 nM"}, "[12]": {"tested_on": "Fibroblast growth factor receptor 3 (Homo sapiens), P22607 [G697C]", "conditions": "Compound concentration 1000.0 nM"}, "[13]": {"tested_on": "Receptor-type tyrosine-protein kinase FLT3 (Homo sapiens), P36888 [K663Q]", "conditions": "Compound concentration 1000.0 nM"}, "[14]": {"molecular_target": "Vascular endothelial growth factor receptor 3 (Homo sapiens) (UniProt P35916)", "conditions": "Compound concentration 1000.0 nM"}, "[15]": {"molecular_target": "Tyrosine-protein kinase FRK (Homo sapiens) (UniProt P42685)", "conditions": "Compound concentration 1000.0 nM"}, "[16]": {"tested_on": "eIF-2-alpha kinase GCN2 (Homo sapiens), Q9P2K8 [S808G]", "conditions": "Compound concentration 1000.0 nM"}, "[17]": {"molecular_target": "Glycogen synthase kinase-3 beta (Homo sapiens) (UniProt P49841)", "conditions": "Compound concentration 1000.0 nM"}, "[18]": {"molecular_target": "Inhibitor of nuclear factor kappa-B kinase subunit epsilon (Homo sapiens) (UniProt Q14164)", "sequence (Q14164 whole entry)": "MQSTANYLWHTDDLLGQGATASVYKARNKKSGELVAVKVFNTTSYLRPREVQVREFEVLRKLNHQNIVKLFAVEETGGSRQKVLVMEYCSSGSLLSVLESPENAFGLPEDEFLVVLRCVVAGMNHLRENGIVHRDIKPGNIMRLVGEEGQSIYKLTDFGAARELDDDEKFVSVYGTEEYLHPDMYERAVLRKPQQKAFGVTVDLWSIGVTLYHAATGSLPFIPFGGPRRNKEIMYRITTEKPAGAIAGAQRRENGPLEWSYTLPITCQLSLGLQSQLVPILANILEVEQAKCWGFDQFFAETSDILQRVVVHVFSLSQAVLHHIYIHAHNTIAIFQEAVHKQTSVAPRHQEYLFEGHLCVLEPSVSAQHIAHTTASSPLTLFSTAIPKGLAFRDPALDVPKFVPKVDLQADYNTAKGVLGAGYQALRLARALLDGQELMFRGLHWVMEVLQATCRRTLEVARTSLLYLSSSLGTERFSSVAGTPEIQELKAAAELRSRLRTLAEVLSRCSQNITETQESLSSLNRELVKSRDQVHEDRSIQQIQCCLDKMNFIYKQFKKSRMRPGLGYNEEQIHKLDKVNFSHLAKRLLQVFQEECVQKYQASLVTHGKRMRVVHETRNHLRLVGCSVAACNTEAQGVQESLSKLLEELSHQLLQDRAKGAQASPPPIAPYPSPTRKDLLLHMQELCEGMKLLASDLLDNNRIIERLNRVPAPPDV", "conditions": "Compound concentration 1000.0 nM"}, "[19]": {"molecular_target": "Mitogen-activated protein kinase 8 (Homo sapiens) (UniProt P45983)", "conditions": "Compound concentration 1000.0 nM"}, "[20]": {"molecular_target": "Mitogen-activated protein kinase kinase kinase 13 (Homo sapiens) (UniProt O43283)", "conditions": "Compound concentration 1000.0 nM"}, "[21]": {"molecular_target": "MAP/microtubule affinity-regulating kinase 3 (Homo sapiens) (UniProt P27448)", "conditions": "Compound concentration 1000.0 nM"}, "[22]": {"molecular_target": "MAP/microtubule affinity-regulating kinase 4 (Homo sapiens) (UniProt Q96L34)", "conditions": "Compound concentration 1000.0 nM"}, "[23]": {"molecular_target": "Hepatocyte growth factor receptor (Homo sapiens) (UniProt P08581)", "sequence (P08581 whole entry)": "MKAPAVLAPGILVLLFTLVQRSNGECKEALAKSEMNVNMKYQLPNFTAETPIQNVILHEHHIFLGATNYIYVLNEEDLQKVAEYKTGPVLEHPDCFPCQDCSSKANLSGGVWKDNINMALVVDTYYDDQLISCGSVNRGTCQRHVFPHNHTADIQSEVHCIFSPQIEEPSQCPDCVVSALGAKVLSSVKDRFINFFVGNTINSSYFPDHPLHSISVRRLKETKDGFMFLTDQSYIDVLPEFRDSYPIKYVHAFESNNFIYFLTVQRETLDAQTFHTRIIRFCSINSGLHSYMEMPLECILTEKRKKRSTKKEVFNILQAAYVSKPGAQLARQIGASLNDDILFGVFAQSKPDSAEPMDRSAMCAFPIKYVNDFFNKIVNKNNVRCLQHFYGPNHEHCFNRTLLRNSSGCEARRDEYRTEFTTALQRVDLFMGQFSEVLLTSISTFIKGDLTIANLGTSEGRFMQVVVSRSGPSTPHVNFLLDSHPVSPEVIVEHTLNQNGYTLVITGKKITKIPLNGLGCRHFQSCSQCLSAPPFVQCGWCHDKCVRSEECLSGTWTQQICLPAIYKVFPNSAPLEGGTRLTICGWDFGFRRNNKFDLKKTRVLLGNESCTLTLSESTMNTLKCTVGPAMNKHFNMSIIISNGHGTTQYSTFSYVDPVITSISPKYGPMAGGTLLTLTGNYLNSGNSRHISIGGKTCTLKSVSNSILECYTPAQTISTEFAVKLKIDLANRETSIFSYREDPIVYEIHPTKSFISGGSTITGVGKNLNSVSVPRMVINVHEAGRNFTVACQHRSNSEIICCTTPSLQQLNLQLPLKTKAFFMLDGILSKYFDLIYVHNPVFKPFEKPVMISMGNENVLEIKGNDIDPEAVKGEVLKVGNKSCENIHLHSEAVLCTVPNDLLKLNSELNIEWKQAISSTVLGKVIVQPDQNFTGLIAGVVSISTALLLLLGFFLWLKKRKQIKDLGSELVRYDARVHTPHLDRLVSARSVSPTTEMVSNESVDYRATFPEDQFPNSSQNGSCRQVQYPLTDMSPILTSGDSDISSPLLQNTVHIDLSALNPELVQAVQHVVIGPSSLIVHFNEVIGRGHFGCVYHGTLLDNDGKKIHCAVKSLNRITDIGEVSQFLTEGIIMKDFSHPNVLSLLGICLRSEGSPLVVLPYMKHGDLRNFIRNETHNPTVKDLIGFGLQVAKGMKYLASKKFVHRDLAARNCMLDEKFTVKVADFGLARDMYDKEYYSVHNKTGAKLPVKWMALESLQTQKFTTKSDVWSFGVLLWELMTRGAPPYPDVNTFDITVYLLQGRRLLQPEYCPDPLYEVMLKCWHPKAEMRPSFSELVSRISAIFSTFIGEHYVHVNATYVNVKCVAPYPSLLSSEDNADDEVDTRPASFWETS", "conditions": "Compound concentration 1000.0 nM"}, "[24]": {"molecular_target": "Mitogen-activated protein kinase kinase kinase 9 (Homo sapiens) (UniProt P80192)", "conditions": "Compound concentration 1000.0 nM"}, "[25]": {"molecular_target": "Serine/threonine-protein kinase 26 (Homo sapiens) (UniProt Q9P289)", "conditions": "Compound concentration 1000.0 nM"}, "[26]": {"molecular_target": "Serine/threonine-protein kinase Nek5 (Homo sapiens) (UniProt Q6P3R8)", "conditions": "Compound concentration 1000.0 nM"}, "[27]": {"molecular_target": "Serine/threonine-protein kinase PAK 2 (Homo sapiens) (UniProt Q13177)", "conditions": "Compound concentration 1000.0 nM"}, "[28]": {"molecular_target": "Cyclin-dependent kinase 17 (Homo sapiens) (UniProt Q00537)", "conditions": "Compound concentration 1000.0 nM"}, "[29]": {"molecular_target": "Serine/threonine-protein kinase D1 (Homo sapiens) (UniProt Q15139)", "sequence (Q15139 whole entry)": "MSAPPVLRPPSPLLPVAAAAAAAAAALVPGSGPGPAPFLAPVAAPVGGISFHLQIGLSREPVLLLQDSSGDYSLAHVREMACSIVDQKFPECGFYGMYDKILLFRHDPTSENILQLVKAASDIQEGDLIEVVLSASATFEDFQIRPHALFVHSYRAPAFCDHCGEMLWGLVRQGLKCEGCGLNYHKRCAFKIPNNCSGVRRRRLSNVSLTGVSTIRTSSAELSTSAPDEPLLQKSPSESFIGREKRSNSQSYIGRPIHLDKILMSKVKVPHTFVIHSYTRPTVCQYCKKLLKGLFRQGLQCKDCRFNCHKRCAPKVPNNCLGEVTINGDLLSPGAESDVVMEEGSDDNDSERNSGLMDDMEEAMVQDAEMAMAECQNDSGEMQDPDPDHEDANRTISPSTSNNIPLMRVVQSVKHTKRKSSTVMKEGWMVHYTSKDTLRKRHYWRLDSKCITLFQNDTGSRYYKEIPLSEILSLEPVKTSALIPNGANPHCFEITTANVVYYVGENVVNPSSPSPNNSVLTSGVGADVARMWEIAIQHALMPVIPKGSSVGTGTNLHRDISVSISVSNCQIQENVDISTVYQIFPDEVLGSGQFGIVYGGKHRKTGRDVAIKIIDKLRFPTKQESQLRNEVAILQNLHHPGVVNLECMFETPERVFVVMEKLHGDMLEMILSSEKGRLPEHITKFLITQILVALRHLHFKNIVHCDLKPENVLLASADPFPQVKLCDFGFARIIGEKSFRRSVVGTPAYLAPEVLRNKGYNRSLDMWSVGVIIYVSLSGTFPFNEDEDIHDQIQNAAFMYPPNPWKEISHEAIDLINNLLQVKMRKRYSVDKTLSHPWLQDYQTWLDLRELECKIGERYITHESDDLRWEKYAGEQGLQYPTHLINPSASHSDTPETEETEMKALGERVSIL", "conditions": "Compound concentration 1000.0 nM"}, "[30]": {"molecular_target": "Dual serine/threonine and tyrosine protein kinase (Homo sapiens) (UniProt Q6XUX3)", "conditions": "Compound concentration 1000.0 nM"}, "[31]": {"molecular_target": "Ribosomal protein S6 kinase alpha-3 (Homo sapiens) (UniProt P51812)", "conditions": "Compound concentration 1000.0 nM"}, "[32]": {"molecular_target": "Serine/threonine-protein kinase ULK3 (Homo sapiens) (UniProt Q6PHR2)", "conditions": "Compound concentration 1000.0 nM"}, "[33]": {"molecular_target": "Wee1-like protein kinase 2 (Homo sapiens) (UniProt P0C1S8)", "conditions": "Compound concentration 1000.0 nM"}, "Rattus norvegicus": {"organism": "Rattus norvegicus", "conditions": "Compound concentration 10.0 uM"}}}
{"smiles": "CC(C)(C)OC(=O)N1CCCC1CNC1CCC(c2cc(F)ccc2F)(S(=O)(=O)c2ccc(Cl)cc2)CC1", "note": "(centres undefined) [GSI-NC]", "values": [{"measurement": "inhibition", "setting": "[1]", "result": 11, "unit": "%"}]}
{"smiles": "O=S(=O)(NC1CCC(c2cc(F)ccc2F)(S(=O)(=O)c2ccc(Cl)cc2)CC1)C(F)(F)F", "note": "(centres undefined) [MRK-560]", "values": [{"measurement": "residual activity", "setting": "[2]", "result": 90, "unit": "%"}, {"measurement": "residual activity", "setting": "[3]", "result": 100, "unit": "%"}, {"measurement": "residual activity", "setting": "[4]", "result": 82, "unit": "%"}, {"measurement": "residual activity", "setting": "[5]", "result": 100, "unit": "%"}, {"measurement": "residual activity", "setting": "[6]", "result": 100, "unit": "%"}, {"measurement": "residual activity", "setting": "[7]", "result": 100, "unit": "%"}, {"measurement": "residual activity", "setting": "[8]", "result": 100, "unit": "%"}, {"measurement": "residual activity", "setting": "[9]", "result": 100, "unit": "%"}, {"measurement": "residual activity", "setting": "[10]", "result": 80, "unit": "%"}, {"measurement": "residual activity", "setting": "[11]", "result": 100, "unit": "%"}, {"measurement": "residual activity", "setting": "[12]", "result": 100, "unit": "%"}, {"measurement": "residual activity", "setting": "[13]", "result": 97, "unit": "%"}, {"measurement": "residual activity", "setting": "[14]", "result": 100, "unit": "%"}, {"measurement": "residual activity", "setting": "[15]", "result": 100, "unit": "%"}, {"measurement": "residual activity", "setting": "[16]", "result": 100, "unit": "%"}, {"measurement": "residual activity", "setting": "[17]", "result": 100, "unit": "%"}, {"measurement": "residual activity", "setting": "[18]", "result": 0, "unit": "%"}, {"measurement": "residual activity", "setting": "[19]", "result": 78, "unit": "%"}, {"measurement": "residual activity", "setting": "[20]", "result": 91, "unit": "%"}, {"measurement": "residual activity", "setting": "[21]", "result": 79, "unit": "%"}, {"measurement": "residual activity", "setting": "[22]", "result": 100, "unit": "%"}, {"measurement": "residual activity", "setting": "[23]", "result": 100, "unit": "%"}, {"measurement": "residual activity", "setting": "[24]", "result": 98, "unit": "%"}, {"measurement": "residual activity", "setting": "[25]", "result": 85, "unit": "%"}, {"measurement": "residual activity", "setting": "[26]", "result": 100, "unit": "%"}, {"measurement": "residual activity", "setting": "[27]", "result": 100, "unit": "%"}, {"measurement": "residual activity", "setting": "[28]", "result": 100, "unit": "%"}, {"measurement": "residual activity", "setting": "[29]", "result": 100, "unit": "%"}, {"measurement": "residual activity", "setting": "[30]", "result": 100, "unit": "%"}, {"measurement": "residual activity", "setting": "[31]", "result": 83, "unit": "%"}, {"measurement": "residual activity", "setting": "[32]", "result": 82, "unit": "%"}, {"measurement": "residual activity", "setting": "[33]", "result": 100, "unit": "%"}, {"measurement": "inhibition", "setting": "Rattus norvegicus", "result": 37.2, "unit": "%"}]}
